According to paper PMC4418665, “Cyclization of the Urokinase Receptor-Derived Ser-Arg-Ser-Arg-Tyr Peptide Generates a Potent Inhibitor of Trans-Endothelial Migration of Monocytes” (PLoS ONE, 2015):
Peptide text beside a SMILES is read from it.

Assays:
[1] = tested on: PMA-differentiated THP-1 cells; type: cell-based, human; settings: 3 h
Experimental: (§1) The ability of [SRSRY] peptide to affect THP-1 cell migration was analyzed in Boyden chambers using 10 nM fMLF or 10 nM SRSRY as chemoattractants. […] Inhibitory effect of [SRSRY] is dose-dependent, it starts in the high fM range, it seems to level off in the μM range and reaches an overall 50% reduction at 10 pM (Fig 4B). […] The mechanisms by which monocytes move when subjected to a chemoattractant gradient, involve changes in cytoskeletal organization, which provide both protrusive and contractile forces necessary for cell migration. To gain some insights into the cellular effects exerted by peptide [SRSRY], PMA-differentiated THP-1 cells were grown adherent onto a glass slide, exposed to diluents (CTL), 10 nM fMLF gradient plus/minus 10 nM [SRSRY] or 10 nM [RSSYR] in a DUNN chamber for 6 hours as described, and then stained with rhodamine-phalloidin. A total of 100 cells/sample that translocated to the area corresponding to the ring separating the inner and outer chambers were counted and their cytoskeletal organization examined with a fluorescence-inverted microscope. […] Conversely, the addition of peptide [SRSRY] to the fMLF gradient reduced cell elongation and alignment with the appearance of F-actin linear distribution along the plasma membranes in the 60% of cell population (Fig 4C). In order to verify whether the inhibitory effect of [SRSRY] also occurs on primary monocytes and/or macrophages, human monocytes and macrophages were subjected to cell migration assays in Boyden and DUNN chambers, respectively. […] Unlike [RSSYR], 10 nM [SRSRY] reduced both fMLF- and SRSRY- directed monocyte migration by 50% and 49%, respectively. Next, primary macrophages were subjected to cell migration assay in DUNN chamber as above described. After 6 hours incubation, a total of 100 cells/sample that translocated to the area corresponding to the ring separating the inner and outer chambers were counted. Macrophage exposure to 10 nM fMLF elicited a considerable cell migration, reaching 230% of the basal cell migration (CTL), that was unchanged by 10 nM [[…]). […] These findings indicate that unlike linear SRSRY, the cyclic form of the chemotactic sequence of uPAR inhibits monocyte motility and prevents cytoskeletal re-organization occurring during migration of macrophages. {[…]] inhibits migration of monocytes and macrophages in a dose-dependent manner causing a marked inhibition of fMLF-dependent cytoskeletal re-organization. A. THP-1 cells (1x10^5 cells/well) were allowed to migrate for 90 minutes at 37°C, 5% CO2 in Boyden chambers toward 10 nM fMLF, or 10 nM SRSRY in the presence of diluents (None), 10 nM [RSSYR] or 10 nM [SRSRY]. […] Data are expressed as the means ± SD of three independent experiments, performed in duplicate. *Statistical significance against None with p<0.001. B. THP-1 and PMA-stimulated THP-1 cell migration toward 10 nM fMLF plus increasing concentrations of [SRSRY] in Boyden chambers. The extent of cell migration was expressed as a percentage of the net fMLF-dependent cell migration, considered as 100%. Data are expressed as the means ± SD of three independent experiments, performed in duplicate. C. Representative images of PMA-stimulated THP-1 cells allowed to migrate in a DUNN chamber toward diluents (CTL), or a fMLF chemotactic gradient, in the absence (None) or presence of 10 nM [SRSRY] or [RSSYR] peptides and stained with rhodamine-phalloidin. Scale bar: 10 μm. Original magnifications: 630x. D-E. Primary monocytes (1x10^5 cells/well) were allowed to migrate for 90 minutes at 37°C, 5% CO2 in Boyden chambers toward 10 nM fMLF (D), or 10 nM […]) in the presence of diluents (None), 10 nM [RSSYR] or 10 nM [SRSRY]. […] Data are expressed as the means ± SD of three independent experiments, performed in duplicate. *Statistical significance against None with p<0.001; **Statistical significance against None with p<0.0001. […]

THP-1 cells = type: cell-based, human
Experimental: as §1

primary macrophages = test: Primary macrophage migration in DUNN chamber; type: cell-based, human; settings: 10 nM peptide added to 10 nM fMLF gradient, 6 hours
Experimental: The ability of [SRSRY] peptide to affect THP-1 cell migration was analyzed in Boyden chambers using 10 nM fMLF or 10 nM SRSRY as chemoattractants. […] Inhibitory effect of [SRSRY] is dose-dependent, it starts in the high fM range, it seems to level off in the μM range and reaches an overall 50% reduction at 10 pM (Fig 4B). […] The mechanisms by which monocytes move when subjected to a chemoattractant gradient, involve changes in cytoskeletal organization, which provide both protrusive and contractile forces necessary for cell migration. […] A total of 100 cells/sample that translocated to the area corresponding to the ring separating the inner and outer chambers were counted and their cytoskeletal organization examined with a fluorescence-inverted microscope. […] After 6 hours incubation, a total of 100 cells/sample that translocated to the area corresponding to the ring separating the inner and outer chambers were counted. […] Data are expressed as the means ± SD of three independent experiments, performed in duplicate. *Statistical significance against None with p<0.001. […] The extent of cell migration was expressed as a percentage of the net fMLF-dependent cell migration, considered as 100%. Data are expressed as the means ± SD of three independent experiments, performed in duplicate. […]

RBL-2H3/ETFR cells = test: RBL-2H3/ETFR cell proliferation, xCELLigence; type: cell-based, rat; settings: 10 μM peptide, up to 90 hours, medium replaced every 24 hours, quadruplicate
[2] = 10 nM peptide, 90 minutes, Boyden chamber

IC50 [1]: 0.01 nM
IC50 (THP-1 cells; 6 h): 0.01 nM
SMILES: N=C(N)NCCC[C@@H]1NC(=O)[C@H](CO)NC(=O)[C@H](Cc2ccc(O)cc2)NC(=O)[C@H](CCCNC(=N)N)NC(=O)[C@H](CO)NC1=O [[SRSRY], [Ser-Arg-Ser-Arg-Tyr]] (cyclo(RSRYS))
reduction of THP-1 monocyte migration toward 10 nM SRSRY (THP-1 cells; [2]): 68%
reduction of THP-1 monocyte migration toward 10 nM fMLF (THP-1 cells; [2]): 58%
effect on fMLF-directed migration of primary macrophages (primary macrophages): reduced migration of primary macrophages to the basal level
RBL-2H3/ETFR cell growth (RBL-2H3/ETFR cells): did not modify cell growth up to 90 hours
